Results reported in patent US20260347373A1, “HETEROCYCLIC COMPOUNDS, COMPOSITIONS THEREOF, AND METHODS OF TREATMENT THEREWITH” (BeOne Medicines I GmbH, priority 2023, published 2026).
Like-named read-outs stand apart in the source and are kept apart here.

Assays:
[1] = target: KRAS G12D (Homo sapiens, UniProt P01116, G12D); experiment: KRAS G12D Probe Displacement Assay (TR-FRET, GDP-loaded); type: binding
Excerpt: (§1) The synthetic routes of probe 1 and 2, which have been disclosed in PCT/CN2022/070676, are hereby incorporated herein.

[2] = target: WT KRAS (Homo sapiens, UniProt P01116); experiment: KRAS WT Probe Displacement Assay (TR-FRET, GDP-loaded); type: binding
Chain of WT KRAS (P01116 1-188 isoform P01116-2): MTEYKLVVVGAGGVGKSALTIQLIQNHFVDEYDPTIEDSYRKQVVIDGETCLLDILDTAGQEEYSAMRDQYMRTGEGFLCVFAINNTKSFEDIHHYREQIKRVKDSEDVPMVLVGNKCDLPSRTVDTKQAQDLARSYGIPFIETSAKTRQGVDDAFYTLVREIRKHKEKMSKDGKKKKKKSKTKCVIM
Excerpt: as §1

[3] = KRAS G12D, read-out: KRAS^G12D Probe Displacement Assay IC50
[4] = KRAS WT, read-out: KRAS^WT Probe Displacement Assay IC50

Chain of KRAS G12D (P01116 1-188 isoform P01116-2 G12D): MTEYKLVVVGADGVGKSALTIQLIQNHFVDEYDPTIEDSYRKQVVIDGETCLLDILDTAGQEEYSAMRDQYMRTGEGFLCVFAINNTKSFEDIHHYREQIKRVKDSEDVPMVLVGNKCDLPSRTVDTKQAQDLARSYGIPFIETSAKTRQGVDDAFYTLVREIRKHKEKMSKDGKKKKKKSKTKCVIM

Structure (SMILES) | IC50 ([1]; KRAS^G12D Probe Displacement Assay IC50, KRAS G12D) [nM] | IC50 ([2]; KRAS^WT Probe Displacement Assay IC50, KRAS WT) [nM] | IC50 [1, 3] [nM] | IC50 [2, 4] [nM]
Cc1cc(N)cc(-c2nc3c4c(nc(OCC5(CN6C[C@H]7COC[C@H]7C6)CC5)nc4c2F)N2C[C@H]4CC[C@H](N4)[C@H]2CCO3)c1C(F)(F)F [Example 100, 3-((6aR,7S,10R)-1-fluoro-13-((1-(((3aR,6aS)-tetrahydro-1H-furo[3,4-c]pyrrol-5(3H)-yl)methyl)cyclopropyl)methoxy)-5,6,6a,7,8,9,10,11-octahydro-4-oxa-3,11a,12,14,15-pentaaza-7,10-methanocyclohepta [4,5]cycloocta [1,2,3-de]naphthalen-2-yl)-5-methyl-4-(trifluoromethyl) aniline] | < 0.3 | 0.3 to 3 | – | –
Cc1cc(N)cc(-c2nc3c4c(nc(OCC56CC(F)CN5CC(F)C6)nc4c2F)N2C[C@H]4CC[C@H](N4)[C@H]2CCO3)c1C(F)(F)F (stereo partly drawn) [Example 6, 3-((6aR,7S,10R)-13-((2,6-difluorotetrahydro-1H-pyrrolizin-7a(5H)-yl)methoxy)-1-fluoro-5,6,6a,7,8,9,10,11-octahydro-4-oxa-3,11a,12,14,15-pentaaza-7,10-methanocyclohepta[4,5]cycloocta [1,2,3-de]naphthalen-2-yl)-5-methyl-4-(trifluoromethyl)aniline] | – | – | 0.3 to 3 | 3 to 1000
Cc1cc(N)cc(-c2nc3c4c(nc(OCC5(CN6CCOC7(CCC7)C6)CC5)nc4c2F)N2C[C@H]4CC[C@H](N4)[C@H]2CCO3)c1C(F)(F)F [Example 121, 3-((6aR,7S,10R)-13-((1-((5-oxa-8-azaspiro[3.5]nonan-8-yl)methyl)cyclopropyl)methoxy)-1-fluoro-5,6,6a,7,8,9,10,11-octahydro-4-oxa-3,11a,12,14,15-pentaaza[7,10]methanocyclohepta [4,5]cycloocta[1,2,3-de]naphthalen-2-yl)-5-methyl-4-(trifluoromethyl)aniline] | – | – | < 0.3 | 3 to 1000
Cc1cc(N)cc(-c2nc3c4c(nc(OCC5(CN6[C@@H]7CC[C@H]6COC7)CC5)nc4c2F)N2C[C@H]4CC[C@H](N4)[C@H]2CCO3)c1C(F)(F)F [Example 107, 3-((6aR,7S,10R)-13-((1-(((1R,5S)-3-oxa-8-azabicyclo [3.2.1]octan-8-yl)methyl)cyclopropyl)methoxy)-1-fluoro-5,6,6a,7,8,9,10,11-octahydro-4-oxa-3,11a,12,14,15-pentaaza-7,10-methanocyclohepta [4,5]cycloocta [1,2,3-de]naphthalen-2-yl)-5-methyl-4-(trifluoromethyl)aniline] | – | – | < 0.3 | 3 to 1000
CN(C)C[C@]1(COc2nc3c4c(nc(-c5cc(N)cc(Cl)c5C(F)(F)F)c(F)c4n2)OCC[C@@H]2[C@@H]4CC[C@H](CN32)N4)CC1(F)F [Example 44, 3-chloro-5-((6aR,7S,10R)-13-(((S)-1-((dimethylamino)methyl)-2,2-difluorocyclopropyl)methoxy)-1-fluoro-5,6,6a,7,8,9,10,11-octahydro-4-oxa-3,11a,12,14,15-pentaaza-7,10-methanocyclohepta[4,5]cycloocta [1,2,3-de]naphthalen-2-yl)-4-(trifluoromethyl)aniline] | – | – | < 0.3 | 0.3 to 3
Cc1cc(N)cc(-c2nc3c4c(nc(OCC5(CN6CCCC(C(F)(F)F)C6)CC5)nc4c2F)N2C[C@H]4CC[C@H](N4)[C@H]2CCO3)c1C(F)(F)F (stereo partly drawn) [Example 118, 3-((6aR,7S,10R)-1-fluoro-13-((1-((3-(trifluoromethyl)piperidin-1-yl)methyl)cyclopropyl)methoxy)-5,6,6a,7,8,9,10,11-octahydro-4-oxa-3,11a,12,14,15-pentaaza-7,10-methanocyclohepta [4,5]cycloocta [1,2,3-de]naphthalen-2-yl)-5-methyl-4-(trifluoromethyl)aniline] | – | – | < 0.3 | 3 to 1000
